Legend:
[1] = system: β-glucan receptor of monocytes; test: Inhibition of Zymosan ingestion by human monocytes (affinity for the monocyte β-glucan receptor); assay type: cell-based
Description: Human monocytes were incubated with various concentrations of the PGG for 15 minutes, washed to remove unbound glucan and then incubated with Zymosan for 30 minutes. After fixing and staining the monolayers, the percentage of monocytes ingesting Zymosan was determined. The affinity of glucan preparations for the β-glucan receptor by was measured according to their ability to competitively occupy the receptor thus inhibiting the uptake of Zymosan by monocytes. Samples were compared by taking the concentration of glucan required to obtain 50% inhibition of Zymosan ingestion.
Two molecular weight fractions of PGG from Saccharomyces cerevisiae R4 were prepared according to the procedure outlined in Example 2. The PGG preparations were then assayed for their affinity to the monocyte β-glucan receptor by measuring inhibition of Zymosan phagocytosis as described in Example 3.

[2] = molecular target: β-glucan receptor of monocytes; conditions: Table 1; value from Czop and Austen, J. Immunology 135(5):3388-3393 (1985); cited from earlier work
[3] = system: peripheral white blood cell (WBC) counts; test: Peripheral total and differential white blood cell counts in mice after IV or SC PGG; assay type: in vivo, male CD-1 mice
Description: The effect of in vivo administration of modified glucans on peripheral white blood cell (WBC) counts was characterized in mice. PGG preparations of the modified glucan from strain R4 were prepared according to the procedure outlined in Example 2 and administered intravenously (IV) and subcutaneously (SC) to male CD-1 mice. Total and differential cell counts were monitored at regular time intervals.

[4] = system: E. coli strain TVDL-rat; test: E. coli sepsis model in mice; assay type: in vivo
Description: A sepsis model was developed in mice to characterize the efficacy of modified PGG glucans in protecting an immunologically intact host against serious infections, such as those which commonly occur following abdominal surgery. PGG derived from WGP-R4 was prepared according to the procedure outlined in Example 2.
The model used intraperitoneal challenge of mice with an 0.1 ml suspension of E. coli strain TVDL-rat (approximately 10^8 CFU/ml) 24 hours following IV administration of PGG by single bolus injection using transthoracic cardiac puncture. Mice were returned to their cages and maintained on food and water ad libitum. A control group of 10 mice were injected with 0.1 ml sterile saline at the time of the PGG administration. Mortality rates for the treatment groups and saline control group were recorded at 48 hours after challenge.

[5] = most pronounced increase, FIGS. 2 and 3, mice
[6] = multiple-dose SC regimen, 5 mg/mouse/day×4 days, after initiation of therapy

**Q.** Which “Relative Avidity” value ([1]; Table 1, relative to Barley β-Glucan = 1) does the source give for Barley β-Glucan [reference compound] here?
**A.** Its value is 1.

**Q.** What about the “Concentration for 50% Inhibition” value [2] of the same substance?
**A.** The value was 65 µg/mL.

**Q.** With “poly-(1-6)-β-D-glucopyranosyl-(1-3)-β-D-glucopyranose [PGG]” as the substance, how does the “concentration of glucan required to obtain 50% inhibition of Zymosan ingestion” value ([1]; human monocytes incubated with glucan 15 minutes, then Zymosan 30 minutes, FIG. 1) read?
**A.** Its value is 0.1 µg/mL.

**Q.** And the “increase in activity (affinity for monocyte β-glucan receptor) versus YE glucan” value ([1]; ratio of concentrations for 50% inhibition of Zymosan ingestion)?
**A.** The value was 35 fold.

**Q.** What about the “time to amplification of total WBC counts” value ([3]; FIGS. 2 and 3, mice) of the same substance?
**A.** Its value is < 6 h.

**Q.** And the “increase in granulocyte count” value [3, 5]?
**A.** The value was 6 ×.

**Q.** What about the “increase in monocyte count” value [3, 5] of the same substance?
**A.** The value was 12 ×.

**Q.** And the “increase in average monocyte count, zero hours to 144 hours” value ([3]; multiple-dose SC regimen)?
**A.** Its value is 24 fold.

**Q.** And the “time at which increase in total WBC begins” value [3, 6]?
**A.** Its value is 48 h.

**Q.** And the “time at which increase in total WBC peaks” value [3, 6]?
**A.** The value was 144 h.

**Q.** And the average monocyte count ([3]; multiple-dose SC regimen, at 144 hours (320/mm^3 at zero hours))?
**A.** Its average monocyte count is “approximately 8,000 /mm^3”.

**Q.** What about the “total WBC count” value ([3]; single-dose IV administration, 5 mg/mouse) of the same substance?
**A.** The value was “profound increase”.

**Q.** What about the “lowest dose significantly reducing mortality” value ([4]; single IV bolus 24 hours before E. coli challenge, equals 0.5 mg/kg body weight) of the same substance?
**A.** Its value is 0.01 mg/mouse.

**Q.** What about the “mortality at 48 hours after challenge compared to saline control group” value ([4]; single IV bolus 24 hours before intraperitoneal E. coli challenge, p<0.05, doses as low as 0.01 mg/mouse (0.5 mg/kg body weight)) of the same substance?
**A.** Its value is “significantly reduced mortality”.

Reference: patent US5322841A, “Method for producing neutral glucans for pharmaceutical applications” (Alpha-Beta Technology, Inc., priority 1992, dated 1994)
